Test results published in patent publication US20240115557A1, “INHIBITORS OF RNA-GUIDED NUCLEASES AND USES THEREOF” (The Brigham and Women's Hospital, Inc., priority 2022, published 2024).

Tests used:
[1] = molecular target: T1, SaCas9 (Staphylococcus aureus, UniProt J7RUA5); experiment: eGFP secondary assay, SaCas9; assay type: cell-based; details: for Z score Avg Z: average of two replicates, Zscore>3 selected as hit; for Normalized Inhibition Rep 1: replicate 1; for Normalized eGFP Disruption Rep 1: replicate 1, % eGFP disruption; for Z score Rep1: replicate 1, Zscore>3 selected as hit; for Normalized Inhibition Rep 2: replicate 2; for Normalized eGFP Disruption Rep 2: replicate 2, % eGFP disruption; for Z score Rep 2: replicate 2, Zscore>3 selected as hit
T1 sequence (J7RUA5 1-1053): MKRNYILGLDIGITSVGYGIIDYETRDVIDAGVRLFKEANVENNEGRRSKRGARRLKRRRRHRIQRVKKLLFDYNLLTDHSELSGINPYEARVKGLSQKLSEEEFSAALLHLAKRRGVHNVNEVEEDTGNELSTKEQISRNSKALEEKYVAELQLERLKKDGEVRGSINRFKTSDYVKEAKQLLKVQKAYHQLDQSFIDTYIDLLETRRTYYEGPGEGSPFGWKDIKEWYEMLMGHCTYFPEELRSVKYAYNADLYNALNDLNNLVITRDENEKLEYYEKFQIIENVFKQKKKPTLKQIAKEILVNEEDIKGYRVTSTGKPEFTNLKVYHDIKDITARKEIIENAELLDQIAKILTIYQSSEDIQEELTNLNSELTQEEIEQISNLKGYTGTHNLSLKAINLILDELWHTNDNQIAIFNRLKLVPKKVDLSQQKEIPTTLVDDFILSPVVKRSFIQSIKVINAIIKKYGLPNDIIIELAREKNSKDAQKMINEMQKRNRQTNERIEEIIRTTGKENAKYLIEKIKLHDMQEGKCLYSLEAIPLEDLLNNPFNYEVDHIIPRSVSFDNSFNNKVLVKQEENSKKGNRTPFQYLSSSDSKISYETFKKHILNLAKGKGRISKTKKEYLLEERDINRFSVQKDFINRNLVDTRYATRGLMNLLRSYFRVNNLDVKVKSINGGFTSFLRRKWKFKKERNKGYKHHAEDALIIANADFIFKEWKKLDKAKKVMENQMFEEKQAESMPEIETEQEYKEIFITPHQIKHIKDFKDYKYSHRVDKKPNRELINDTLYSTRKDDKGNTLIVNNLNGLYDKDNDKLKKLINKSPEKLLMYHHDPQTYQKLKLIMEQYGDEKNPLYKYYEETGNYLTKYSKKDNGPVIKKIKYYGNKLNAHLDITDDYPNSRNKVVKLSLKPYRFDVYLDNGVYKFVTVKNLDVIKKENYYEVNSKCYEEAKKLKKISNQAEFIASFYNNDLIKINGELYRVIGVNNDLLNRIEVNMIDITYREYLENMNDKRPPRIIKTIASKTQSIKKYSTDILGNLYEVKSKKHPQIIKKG
Experimental: All hit compounds were moved forward into the secondary and tertiary screens, in which they were tested in cell-based assays. An eGFP assay is used to determine hits in cells as the secondary screen (eGFP assay).
The eGFP secondary assay evaluated the hits identified from the primary screen. The compounds were judged off the % eGFP disruption to determine the Cas9 inhibition and the assay Zscore. […] The hits from the secondary screens will be processed through tertiary screens of dose studies and HiBit Assay as detailed herein.

[2] = molecular target: T2, SpCas9 (Streptococcus pyogenes serotype M1, UniProt Q99ZW2); experiment: Strand displacement assay (SDA) / cumulative activity assay (CAA), SpCas9 primary screen; assay type: biochemical; details: Primary Screen (150 min); for Normalized Z score 1: replicate 1; for Normalized Z score 2: replicate 2
Procedure, shortened: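 SpCas9:gRNA RNP in 20 mM Tris-HCl pH 7.5, 100 mM KCl, 5 mM MgCl2 was used at 10 nM (2× stock) with Alexa Fluor 647-labelled substrate and excess quencher strand (1 nM and 5 nM, 2× stocks). Fluorescence was read after 2.5 h at 37 °C, where cleavage lets the quencher strand anneal.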

[3] = molecular target: T2, SpCas9; experiment: eGFP disruption assay, SpCas9, U2OS.eGFP.PEST cells; assay type: cell-based; details: for Z score Rep1 / Normalized Z rep1: replicate 1; for SpCas9 eGFP disruption Rep1: replicate 1, raw readout; for Z socre Rep2 / Normalized Z rep2: replicate 2; for SpCas9 eGFP disruption Rep2: replicate 2, raw readout
Procedure, shortened: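 Rescue of eGFP signal lost through Cas9-induced NHEJ indels serves as the inhibition read-out, after 24 h compound exposure (20 μM for hits, variable for dose-response). Editing was delivered by nucleofection into U2OS.eGFP.PEST cells as SpCas9/gRNA plasmids (300/30 ng) or RNP (10/12 pmol). Toxic and autofluorescent compounds were excluded.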

[4] = Cas9 = lower control, Ctrl = upper control
[5] = normalized, lower control about 0, upper control about 1

T2 sequence (Q99ZW2 whole entry): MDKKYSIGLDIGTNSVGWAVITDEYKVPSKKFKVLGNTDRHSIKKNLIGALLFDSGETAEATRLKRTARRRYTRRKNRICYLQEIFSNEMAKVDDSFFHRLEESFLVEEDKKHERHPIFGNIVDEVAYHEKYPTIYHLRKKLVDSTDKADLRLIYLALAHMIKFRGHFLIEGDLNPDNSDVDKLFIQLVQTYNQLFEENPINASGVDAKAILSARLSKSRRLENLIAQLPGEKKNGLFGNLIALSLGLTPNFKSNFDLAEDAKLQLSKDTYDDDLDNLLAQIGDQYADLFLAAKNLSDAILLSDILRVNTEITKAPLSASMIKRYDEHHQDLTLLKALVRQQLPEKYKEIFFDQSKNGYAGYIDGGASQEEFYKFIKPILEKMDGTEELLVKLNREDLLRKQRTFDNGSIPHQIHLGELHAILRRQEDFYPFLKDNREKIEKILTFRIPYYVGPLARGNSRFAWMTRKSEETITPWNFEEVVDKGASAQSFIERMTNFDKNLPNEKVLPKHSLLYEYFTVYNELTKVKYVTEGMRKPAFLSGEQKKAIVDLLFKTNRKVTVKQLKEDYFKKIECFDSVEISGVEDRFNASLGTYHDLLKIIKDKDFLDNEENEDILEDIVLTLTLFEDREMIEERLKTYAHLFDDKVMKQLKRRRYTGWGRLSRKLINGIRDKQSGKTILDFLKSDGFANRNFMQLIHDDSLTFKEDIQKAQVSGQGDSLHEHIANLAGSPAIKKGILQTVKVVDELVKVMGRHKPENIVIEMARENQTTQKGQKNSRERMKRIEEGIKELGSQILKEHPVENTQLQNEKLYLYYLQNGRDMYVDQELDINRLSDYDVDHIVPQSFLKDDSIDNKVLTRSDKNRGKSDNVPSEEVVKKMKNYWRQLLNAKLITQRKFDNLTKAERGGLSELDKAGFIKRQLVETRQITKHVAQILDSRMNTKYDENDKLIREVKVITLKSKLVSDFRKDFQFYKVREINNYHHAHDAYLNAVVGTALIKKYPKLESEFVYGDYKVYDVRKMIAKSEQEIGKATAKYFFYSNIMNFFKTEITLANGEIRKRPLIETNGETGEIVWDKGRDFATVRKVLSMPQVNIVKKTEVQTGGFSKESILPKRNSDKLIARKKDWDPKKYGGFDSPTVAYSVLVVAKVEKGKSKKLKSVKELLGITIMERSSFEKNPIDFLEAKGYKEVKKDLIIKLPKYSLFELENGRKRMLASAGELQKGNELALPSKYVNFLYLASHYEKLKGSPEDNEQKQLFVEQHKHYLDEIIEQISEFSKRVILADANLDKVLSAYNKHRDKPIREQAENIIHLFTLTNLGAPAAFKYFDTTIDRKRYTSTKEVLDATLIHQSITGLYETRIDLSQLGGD

| Compound | Z score Avg Z [1] | Normalized Inhibition Rep 1 [1] | Normalized eGFP Disruption Rep 1 [1] | Z score Rep1 [1] | Normalized Inhibition Rep 2 [1] | Normalized eGFP Disruption Rep 2 [1] | Z score Rep 2 [1] | avg z score primary [2] | Normalized Z score 1 [2] | Normalized Z score 2 [2] | Z score Rep1 [3] | Z socre Rep2 [3] | also measured |
| --- | --- | --- | --- | --- | --- | --- | --- | --- | --- | --- | --- | --- | --- |
| O=c1oc2c(O)c(O)ccc2c2c1CCCC2 [D715-2438] | 3.681 | 17.908 | 82.092 | 2.712 | 38.947 | 61.053 | 4.650 | – | – | – | – | – | – |
| CCCCn1nnnc1NCc1ccc2c(c1)n(C)c(=O)n2C [Compound D664-0047] | 4.425 | 21.201 | 78.799 | 3.210 | 47.229 | 52.771 | 5.639 | – | – | – | – | – | – |
| Cc1cc(=O)c2cc(C(=O)Nc3ccc(F)cc3)ccc2[nH]1 [D421-0876] | 3.719 | 37.535 | 62.465 | 3.774 | 47.343 | 52.657 | 3.664 | – | – | – | – | – | – |
| Cc1nc2nc(N(CCOc3ccccc3)S(=O)(=O)c3ccccc3)nn2c(C)c1Cl [D513-3628] | 5.173 | 51.726 | 48.274 | 5.201 | 66.480 | 33.520 | 5.145 | – | – | – | – | – | – |
| Cc1ccc(-n2ncc(C(=O)Nc3ccc(Br)cc3)c2C2CCNCC2)cc1 [Compound E922-0258] | 7.627 | 63.301 | 36.699 | 7.494 | 59.004 | 40.996 | 7.761 | – | – | – | – | – | – |
| COc1ccccc1-c1nn2c(-c3cccnc3)nnc2s1 [D727-0059] | 3.290 | 17.227 | 82.773 | 2.609 | 33.253 | 66.747 | 3.970 | – | – | – | – | – | – |
| CC1(C(=O)NC2CCCCC2)Cn2c(cc3ccccc32)C(=O)N1Cc1ccccc1 (stereo not drawn) [E234-0008] | 5.237 | 50.589 | 49.411 | 5.989 | 34.101 | 65.899 | 4.485 | – | – | – | – | – | – |
| COc1cccc(N2C(=O)c3cc4ccccc4n3CC2(C)C(=O)NC2CCCCC2)c1 (stereo not drawn) [E234-0006] | 5.194 | 57.048 | 42.952 | 6.753 | 27.639 | 72.361 | 3.635 | – | – | – | – | – | – |
| Cc1cc(-c2nn3c(-c4cccc(F)c4)nnc3s2)c2ccccc2n1 [D727-0417] | 3.995 | 33.326 | 66.674 | 5.046 | 24.659 | 75.341 | 2.944 | – | – | – | – | – | – |
| COc1ccc(N2C(=O)c3cc4ccccc4n3CC2(C)C(=O)NC2CCCCC2)c(OC)c1 (stereo not drawn) [E234-0018] | 3.770 | 38.606 | 61.394 | 4.570 | 22.579 | 77.421 | 2.970 | – | – | – | – | – | – |
| COc1ccc(OC)c(CNC(=O)c2ccc(Oc3ccnc(-c4cccc(F)c4)n3)cc2)c1 [Compound L662-0973] | – | – | – | – | – | – | – | 5.63 | 0.35 | 0.24 | 0.85 | 1.27 | Average Normalized Z score [2]: 0.29; SpCas9 eGFP disruption Rep1 [3, 4]: 78.528; Normalized Z rep1 [3, 5]: 0.13; SpCas9 eGFP disruption Rep2 [3, 4]: 78.814; Normalized Z rep2 [3, 5]: 0.13 |
| COc1ccc(-c2cc(N3CCN(C(=O)c4ccc(C(C)(C)C)cc4)CC3)ncn2)cc1 [Compound M130-0012] | – | – | – | – | – | – | – | 20.61 | 0.28 | 0.28 | −0.67 | −0.27 | Average Normalized Z score ([2]; average of replicates): 0.28; Normalized Z rep1 [3]: −0.10; SpCas9 eGFP disruption Rep1 [3]: 74.104; Normalized Z rep2 [3]: −0.03; SpCas9 eGFP disruption Rep2 [3]: 75.755 |
| COc1ccc(-c2ccc3ncc4c(c3c2)n(-c2ccc(N3CCNCC3)c(C(F)(F)F)c2)c(=O)n4C)cn1.O=C(O)C=CC(=O)O [Compound S2749] | – | – | – | – | – | – | – | 6.76 | 0.35 | 0.34 | −26.02 | −38.53 | Average Normalized Z score ([2]; average of replicates): 0.34; Normalized Z rep1 [3]: −3.98; SpCas9 eGFP disruption Rep1 [3]: 0; Normalized Z rep2 [3]: −4.01; SpCas9 eGFP disruption Rep2 [3]: 0 |
| O=C(Nc1ccc(F)c(Cl)c1)c1ccc(Oc2ccnc(-c3ccc(F)cc3)n2)cc1 [Compound L662-0654] | – | – | – | – | – | – | – | 5.79 | 0.30 | 0.29 | −0.84 | −1.37 | Average Normalized Z score [2]: 0.30; Normalized Z rep1 [3]: −0.13; SpCas9 eGFP disruption Rep1 [3]: 73.611; Normalized Z rep2 [3]: −0.14; SpCas9 eGFP disruption Rep2 [3]: 73.579 |
| O=C(NCC1CCCO1)c1ccc(Oc2ccnc(-c3ccc(F)cc3)n2)cc1 (stereo not drawn) [Compound L662-0604] | – | – | – | – | – | – | – | 6.87 | 0.33 | 0.38 | 0.38 | 0.09 | Average Normalized Z score [2]: 0.35; SpCas9 eGFP disruption Rep1 [3, 4]: 77.166; Normalized Z rep1 [3, 5]: 0.06; SpCas9 eGFP disruption Rep2 [3, 4]: 76.48; Normalized Z rep2 [3, 5]: 0.01 |
| CCOC(=O)C1=C(C)NN=C(Nc2cccc(C)c2C)S1 [Compound T0519-6400] | – | – | – | – | – | – | – | 4.54 | 0.05 | 0.07 | 1.96 | 2.42 | Average Normalized Z score ([2]; average of replicates): 0.06; SpCas9 eGFP disruption Rep1 [3, 4]: 62.891; Normalized Z rep1 [3, 5]: 0.14; SpCas9 eGFP disruption Rep2 [3, 4]: 59.8; Normalized Z rep2 [3, 5]: 0.12 |
| COc1ccc(CNC(=O)c2ccc(Oc3ccnc(-c4cccc(F)c4)n3)cc2)c(OC)c1 [Compound L662-0987] | – | – | – | – | – | – | – | 7.18 | 0.38 | 0.36 | 1.06 | 1.78 | Average Normalized Z score [2]: 0.37; SpCas9 eGFP disruption Rep1 [3, 4]: 79.157; Normalized Z rep1 [3, 5]: 0.16; SpCas9 eGFP disruption Rep2 [3, 4]: 79.829; Normalized Z rep2 [3, 5]: 0.19 |
| Cl.Cl.Fc1cc(-c2cccc3ncc(-c4cnn(C5CCNCC5)c4)nc23)cc(F)c1CN1CCOCC1 [Compound S2686] | – | – | – | – | – | – | – | 7.03 | 0.37 | 0.35 | −4.74 | −5.44 | Average Normalized Z score ([2]; average of replicates): 0.36; Normalized Z rep1 [3]: −0.73; SpCas9 eGFP disruption Rep1 [3]: 62.196; Normalized Z rep2 [3]: −0.57; SpCas9 eGFP disruption Rep2 [3]: 65.516 |
